Assay results: patent publication US20150044702A1, “MEANS AND METHODS FOR ASSESSING DISORDERS RELATED TO IMPAIRED IRON […] ENERGY METABOLISM” (BASF SE, priority 2012, published 2015)
Marks after values point to notes of the source that are not given here.

Experiments:
[1] = 28-day rat study, plasma metabolite profiling: markers for Energy metabolism decreased; assay type: in vivo; settings: for 3-Hydroxybutyrate, treatment ratio versus control / Citrate, treatment ratio versus control / Pyruvate, treatment ratio versus control / Succinate, treatment ratio versus control: male rats, plasma; for capability of inducing impaired energy metabolism: statement in words
Description: Drinking water was also offered ad libitum.
The samples were centrifuged for generation of plasma.

[2] = 28-day rat study, plasma metabolite profiling: markers for Duodenum iron deficiency; settings: for Cholic acid, treatment ratio versus control / Choline plasmalogen (C18,C20:4), treatment ratio versus control / Citrate, treatment ratio versus control / Creatinine, treatment ratio versus control / DAG (C18:1,C18:2), treatment ratio versus control / Hippuric acid, treatment ratio versus control / Indole-3-propionic acid, treatment ratio versus control / Methionine, treatment ratio versus control / Proline, treatment ratio versus control / Serine, treatment ratio versus control / TAG (C16:0,C18:1,C18:3), treatment ratio versus control / TAG (C18:1,C18:2), treatment ratio versus control / TAG (C18:2,C18:2), treatment ratio versus control / TAG (C18:2,C18:3), treatment ratio versus control / TAG (DAG-Fragment), treatment ratio versus control / TAG No 02, treatment ratio versus control / TAG No 07, treatment ratio versus control / Threonine, treatment ratio versus control / alpha-Tocopherol, treatment ratio versus control / Alanine, treatment ratio versus control / Campesterol, treatment ratio versus control / Glutamate, treatment ratio versus control / Glutamine, treatment ratio versus control / Lysophosphatidylcholine (C20:4), treatment ratio versus control / Malate, treatment ratio versus control / Ornithine, treatment ratio versus control / Phosphatidylcholine (C18:0, C22:6), treatment ratio versus control / Threonic acid, treatment ratio versus control: plasma;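 note: rats given the compounds once a day across 28 days, plasma from fasted animals profiled by GC-MS and LC-MS, separate control groups of five rats per sex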
Description: A group of each 5 male and female rats was dosed once daily with the indicated compounds (see Table 4, below for compounds, applied doses and administration details) over 28 days.
Each dose group in the studies consisted of five rats per sex. Additional groups of each 5 male and female animals served as controls. Before starting the treatment period, animals, which were 62-64 days old when supplied, were acclimatized to the housing and environmental conditions for 7 days. All animals of the animal population were kept under the same constant temperature (20-24±3° C.) and the same constant humidity (30-70%). The animals of the animal population were fed ad libitum. The food to be used was essentially free of chemical or microbial contaminants. Drinking water was also offered ad libitum. Accordingly, the water was free of chemical and microbial contaminants as laid down in the European Drinking Water Directive 98/83/EG. The illumination period was 12 hours light followed by 12 hours darkness (12 hours light, from 6:00 to 18:00, and 12 hours darkness, from 18:00 to 6:00). The studies were performed in an AAALAC-approved laboratory in accordance with the German Animal Welfare Act and the European Council Directive 86/609/EE. The test system was arranged according to the OECD 407 guideline for the testing of chemicals for repeated dose 28-day oral toxicity study in rodents.
In the morning of day 7, 14, and 28, blood was taken from the retroorbital venous plexus from fasted anaesthetized animals. From each animal, 1 ml of blood was collected with EDTA as anticoagulant. The samples were centrifuged for generation of plasma. All plasma samples were covered with a N2 atmosphere and then stored at −80° C. until analysis.
For mass spectrometry-based metabolite profiling analyses plasma samples were extracted and a polar and a non-polar (lipid) fraction was obtained. For GC-MS analysis, the non-polar fraction was treated with methanol under acidic conditions to yield the fatty acid methyl esters. Both fractions were further derivatised with O-methyl-hydroxyamine hydrochloride and pyridine to convert Oxo-groups to O-methyloximes and subsequently with a silylating agent before analysis. In LC-MS analysis, both fractions were reconstituted in appropriate solvent mixtures. HPLC was performed by gradient elution on reversed phase separation columns.
Steroids and their metabolites were measured by online SPE-LC-MS (Solid phase extraction-LC-MS).
Following comprehensive analytical validation steps, the data for each analyte were normalized against data from pool samples. These samples were run in parallel through the whole process to account for process variability. The significance of treatment group values specific for sex, treatment duration and metabolite was determined by comparing means of the treated groups to the means of the respective untreated control groups using WELCH-test and quantified with treatment ratios versus control and p-values.

## COCCO [2-Methoxyethanol]
[1]; day 7
  3-Hydroxybutyrate, treatment ratio versus control: 0.45*
  Citrate, treatment ratio versus control: 0.7*
  Pyruvate, treatment ratio versus control: 0.63*
  Succinate, treatment ratio versus control: 0.91
[1]; day 14
  3-Hydroxybutyrate, treatment ratio versus control: 0.24*
  Citrate, treatment ratio versus control: 0.39*
  Pyruvate, treatment ratio versus control: 0.66*
  Succinate, treatment ratio versus control: 0.99
[1]
  capability of inducing impaired energy metabolism: capable of inducing impaired energy metabolism

## NC(=O)c1ccc(N)nc1 [6-Aminonicotinamide i.p., 6-Aminopyridine-3-carboxamide]
[1]; day 7
  3-Hydroxybutyrate, treatment ratio versus control: 0.31*
  Citrate, treatment ratio versus control: 0.62*
  Pyruvate, treatment ratio versus control: 0.31*
  Succinate, treatment ratio versus control: 0.92*
[1]
  capability of inducing impaired energy metabolism: capable of inducing impaired energy metabolism

## CNC(=O)/C(=N/OC)c1ccccc1CO/N=C(C)/C(=N/OC)C(/C)=N/OC [Orysastrobin, (2E)-2-(methoxyimino)-2-{2-[(3E,5E,6E)-5-(methoxyimino)-4,6-dimethyl-2,8-dioxa-3,7-diazanona-3,6-dien-1-yl]phenyl}-N-methylacetamide]
[2]; female rats, day 7
  Cholic acid, treatment ratio versus control: 15.95
  Choline plasmalogen (C18,C20:4), treatment ratio versus control: 1.18*
  Citrate, treatment ratio versus control: 1.24*
  Creatinine, treatment ratio versus control: 0.9
  DAG (C18:1,C18:2), treatment ratio versus control: 2.21*
  Hippuric acid, treatment ratio versus control: 0.91
  Indole-3-propionic acid, treatment ratio versus control: 0.54
  Methionine, treatment ratio versus control: 1.33*
  Proline, treatment ratio versus control: 1.03
  Serine, treatment ratio versus control: 1.32*
  TAG (C16:0,C18:1,C18:3), treatment ratio versus control: 1.02
  TAG (C18:1,C18:2), treatment ratio versus control: 1.34*
  TAG (C18:2,C18:2), treatment ratio versus control: 1.63*
  TAG (C18:2,C18:3), treatment ratio versus control: 1.37*
  TAG (DAG-Fragment), treatment ratio versus control: 1.62*
  TAG No 02, treatment ratio versus control: 1
  TAG No 07, treatment ratio versus control: 1.19
  Threonine, treatment ratio versus control: 1.83*
  alpha-Tocopherol, treatment ratio versus control: 1.27*
[2]; female rats, day 14
  Cholic acid, treatment ratio versus control: 2.8*
  Choline plasmalogen (C18,C20:4), treatment ratio versus control: 1.13*
  Citrate, treatment ratio versus control: 1.04
  Creatinine, treatment ratio versus control: 1.08
  DAG (C18:1,C18:2), treatment ratio versus control: 2.83*
  Hippuric acid, treatment ratio versus control: 1.04
  Indole-3-propionic acid, treatment ratio versus control: 0.73
  Methionine, treatment ratio versus control: 1.12*
  Proline, treatment ratio versus control: 1.08*
  Serine, treatment ratio versus control: 1.26*
  TAG (C16:0,C18:1,C18:3), treatment ratio versus control: 2.42*
  TAG (C18:1,C18:2), treatment ratio versus control: 2.28*
  TAG (C18:2,C18:2), treatment ratio versus control: 3.02*
  TAG (C18:2,C18:3), treatment ratio versus control: 1.94*
  TAG (DAG-Fragment), treatment ratio versus control: 3.03*
  TAG No 02, treatment ratio versus control: 0.84*
  TAG No 07, treatment ratio versus control: 1.99*
  Threonine, treatment ratio versus control: 1.83*
  alpha-Tocopherol, treatment ratio versus control: 1.24*
[2]; female rats, day 28
  Cholic acid, treatment ratio versus control: 5.13*
  Choline plasmalogen (C18,C20:4), treatment ratio versus control: 1.26*
  Citrate, treatment ratio versus control: 1.08*
  Creatinine, treatment ratio versus control: 0.84
  DAG (C18:1,C18:2), treatment ratio versus control: 3.11*
  Hippuric acid, treatment ratio versus control: 0.41*
  Indole-3-propionic acid, treatment ratio versus control: 0.64*
  Methionine, treatment ratio versus control: 1.11*
  Proline, treatment ratio versus control: 1.1
  Serine, treatment ratio versus control: 1.16*
  TAG (C16:0,C18:1,C18:3), treatment ratio versus control: 1.86*
  TAG (C18:1,C18:2), treatment ratio versus control: 1.98*
  TAG (C18:2,C18:2), treatment ratio versus control: 1.79*
  TAG (C18:2,C18:3), treatment ratio versus control: 1.63*
  TAG (DAG-Fragment), treatment ratio versus control: 2.22*
  TAG No 02, treatment ratio versus control: 1.02
  TAG No 07, treatment ratio versus control: 1.5
  Threonine, treatment ratio versus control: 1.58*
  alpha-Tocopherol, treatment ratio versus control: 1.33*
[2]; male rats, day 7
  Alanine, treatment ratio versus control: 1.15*
  Campesterol, treatment ratio versus control: 1.14
  Citrate, treatment ratio versus control: 1.12*
  Creatinine, treatment ratio versus control: 1.04
  Glutamate, treatment ratio versus control: 1.09
  Glutamine, treatment ratio versus control: 0.96
  Hippuric acid, treatment ratio versus control: 0.69
  Lysophosphatidylcholine (C20:4), treatment ratio versus control: 0.86*
  Malate, treatment ratio versus control: 1.17*
  Methionine, treatment ratio versus control: 1.05*
  Ornithine, treatment ratio versus control: 1.28*
  Phosphatidylcholine (C18:0, C22:6), treatment ratio versus control: 1.39*
  Serine, treatment ratio versus control: 1.17*
  Threonic acid, treatment ratio versus control: 2.29*
  Threonine, treatment ratio versus control: 1.28*
[2]; male rats, day 14
  Alanine, treatment ratio versus control: 1.05
  Campesterol, treatment ratio versus control: 1.07
  Citrate, treatment ratio versus control: 1.04
  Creatinine, treatment ratio versus control: 1.03
  Glutamate, treatment ratio versus control: 0.77*
  Glutamine, treatment ratio versus control: 0.81*
  Hippuric acid, treatment ratio versus control: 0.58*
  Lysophosphatidylcholine (C20:4), treatment ratio versus control: 0.77*
  Malate, treatment ratio versus control: 1.08
  Methionine, treatment ratio versus control: 1
  Ornithine, treatment ratio versus control: 1.31*
  Phosphatidylcholine (C18:0, C22:6), treatment ratio versus control: 1.34*
  Serine, treatment ratio versus control: 1.1*
  Threonic acid, treatment ratio versus control: 1.86*
  Threonine, treatment ratio versus control: 1.23
[2]; male rats, day 28
  Alanine, treatment ratio versus control: 1.02
  Campesterol, treatment ratio versus control: 0.49*
  Citrate, treatment ratio versus control: 1.09*
  Creatinine, treatment ratio versus control: 1.16
  Glutamate, treatment ratio versus control: 0.88
  Glutamine, treatment ratio versus control: 0.71*
  Hippuric acid, treatment ratio versus control: 0.48*
  Lysophosphatidylcholine (C20:4), treatment ratio versus control: 0.81*
  Malate, treatment ratio versus control: 1.16
  Methionine, treatment ratio versus control: 1.1*
  Ornithine, treatment ratio versus control: 1.21*
  Phosphatidylcholine (C18:0, C22:6), treatment ratio versus control: 1.19*
  Serine, treatment ratio versus control: 1.26*
  Threonic acid, treatment ratio versus control: 2.17*
  Threonine, treatment ratio versus control: 1.14*
[2]; statement in words
  capability of inducing an iron adsorption disorder: capable of inducing an iron adsorption disorder
